Molecules are shown by their SMILES.

For this assay, the target named is T1, 15-hydroxy-prostaglandin dehydrogenase (PGDH) (Homo sapiens, UniProt P15428).
T1 construct: cell-free preparations of human placenta (containing PGDH); from tissue; host or cells: human placenta, cell-free preparation
T1 sequence (P15428 1-266): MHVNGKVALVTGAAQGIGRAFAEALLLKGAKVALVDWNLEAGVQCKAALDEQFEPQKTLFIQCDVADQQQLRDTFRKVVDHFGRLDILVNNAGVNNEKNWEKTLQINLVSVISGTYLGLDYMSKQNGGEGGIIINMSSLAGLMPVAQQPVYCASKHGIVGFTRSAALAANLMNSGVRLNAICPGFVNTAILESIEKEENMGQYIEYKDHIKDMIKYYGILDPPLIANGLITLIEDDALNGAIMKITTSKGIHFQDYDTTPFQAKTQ
As to the kind of experiment: Inhibition of 15-Hydroxy Prostaglandin Dehydrogenase (in vitro, cell-free preparations of human placenta, radioactive PGF2 degradation). It counts as biochemical. The note with it: 50% inhibition of degradation of radioactive PGF2 vs controls without inhibitor. The procedure: Radioactive prostaglandin F2 (PGF2 ) is incubated with cell-free preparations of human placenta (containing PGDH) as desribed by Hoult and Moore, Brithish Journal of Pharmacology Vol. 61 (1977), p. 615. After a suitable incubation period the prostaglandins are extracted and separated chromatographically. The amount of unchanged PGF2 is then compared with the amount of metabolites. The inhibitory effect is evaluated by measurement of the effect in the presence of different amounts of added inhibitor and determination of the concentration (IC50 ) at which 50% inhibition of degradation has been obtained as compared to controls run without inhibitor additions. Very good inhibitors are considered to be those that inhibit PGDH by 50% at a concentration of 10 μM or less. Good inhibitors are considered to be those that inhibit at a concentration of between 10 and 100 μM. Also where a compound has to be classified as less good this will often be compensated in actual practice by other valuable properties, such as for instance a low toxicity or particularly suitable pharmacokinetic properties.
The Table below sets forth IC50 values for a number of compounds according to the invention. For comparison the Table also gives the IC50 value of 5-phenylazo-2-hydroxybenzeneacetic acid which is a known effective PGDH inhibitor described in EP,-A-No. 21229.
Usually IC50 stands for the midpoint of a concentration-inhibition curve. For the compound `O=C(O)Cc1cc(N=Nc2ccccc2)ccc1O` [5-phenylazo-2-hydroxybenzeneacetic acid, reference compound], the half-inhibitory concentration (IC50) turned out to be 12 µM.

In the case of `O=C(O)Cc1cc(C(=O)c2ccccc2)ccc1O` [Example 1, 5-Benzoyl-2-hydroxy-benzeneacetic acid], the IC50 came out at 1.4 µM.

In the case of `Cc1cc(C)cc(C(=O)c2ccc(O)c(CC(=O)O)c2)c1` [Example 3, 5-(3,5-Dimethyl-benzoyl)-2-hydroxy-benzeneacetic acid], the 50% inhibitory concentration (IC50) stood at 22 µM.

`O=C(O)Cc1cc(C=Cc2ccccc2)ccc1O` [Example 4, 2-Hydroxy-5-(2-phenyl-1-ethenyl)-benzeneacetic acid]: the half-inhibitory concentration (IC50) was found to be 20 µM.

As to `O=C(O)Cc1cc(C(=O)c2ccc(Cl)cc2)ccc1O` [Example 5, 2-Hydroxy-5-(4-chlorobenzoyl)-benzeneacetic acid], the IC50 was 0.6 µM.

Consider `N#Cc1ccc(C(=O)c2ccc(O)c(CC(=O)O)c2)cc1` [Example 6, 5-(4-Cyanobenzoyl)-2-hydroxy-benzeneacetic acid], for which the IC50 worked out at 0.74 µM.

Consider `O=C(O)Cc1cc(C(=O)c2ccc(C(=O)O)cc2)ccc1O` [Example 7, 2-Hydroxy-5-(4-carboxybenzoyl)-benzeneacetic acid], for which the 50% inhibitory concentration (IC50) is 1.3 µM.

Turning to `O=C(O)Cc1cc(C(=O)c2ccccc2)cc(Br)c1O` [Example 9, 5-Benzoyl-3-bromo-2-hydroxy-benzeneacetic acid], the IC50 is 42 µM.

Take `O=C(O)Cc1cc(C(=O)c2ccccc2F)ccc1O` [Example 10, 5-(2-Fluorobenzoyl)-2-hydroxy-benzeneacetic acid]: the 50% inhibitory concentration (IC50) was determined as 0.74 µM.

For `O=C(O)Cc1cc(C(=O)c2ccc(Cl)cc2Cl)ccc1O` [Example 11, 5-(2,4-Dichlorobenzoyl)-2-hydroxy-benzeneacetic acid], the 50% inhibitory concentration (IC50) was 0.21 µM.

In the case of `O=C(O)Cc1cc(C(=O)c2cccc(F)c2)ccc1O` [Example 12, 5-(3-Fluorobenzoyl)-2-hydroxy-benzeneacetic acid], the IC50 is 1.3 µM.

As for `O=C(O)Cc1cc(C(=O)Cc2ccccc2)ccc1O` [Example 14, 5-(2-Phenylacetyl)-2-hydroxy-benzeneacetic acid], the IC50 stood at 56 µM.

On to `O=C(O)Cc1cc(C(=O)Cc2ccc(C(=O)O)cc2)ccc1O` [Example 15, 2-Hydroxy-5-(2-(4-carboxyphenyl)-acetyl)-benzeneacetic acid], for which the half-inhibitory concentration (IC50) was 1.7 µM.

In the case of `O=C(O)Cc1cc(C(=O)C=Cc2ccccc2)ccc1O` [Example 16, 5-(3-Phenyl-1-oxo-2-propenyl)-2-hydroxy-benzeneacetic acid], the IC50 was 12 µM.

For `O=C(O)Cc1cc(C(=O)C=Cc2ccc(C(=O)O)cc2)ccc1O` [Example 17, 2-Hydroxy-5-(3-(4-carboxyphenyl)-1-oxo-2-propenyl)benzeneacetic acid], the IC50 was determined as 1.4 µM.

As for `O=C(O)Cc1cc(C(=O)c2cccc(C(=O)O)c2)ccc1O` [Example 18, 2-Hydroxy-5-(3-carboxybenzoyl)-benzeneacetic acid], the IC50 worked out at 6 µM.

Take `COC(=O)Cc1cc(C(=O)c2ccc(F)cc2)ccc1O` [Example 20, Methyl-5-(4-fluorobenzoyl)-2-hydroxy-benzeneacetate]: the IC50 was determined as 4.9 µM.

Regarding `O=C(O)Cc1cc(C(=O)c2ccc(F)cc2)ccc1O` [Example 21, 5-(4-Fluorobenzoyl)-2-hydroxy-benzeneacetic acid], the IC50 came to 0.58 µM.

Take `O=C(O)Cc1cc(C(=O)c2c(F)cccc2F)ccc1O` [Example 25, 5-(2,6-Difluorobenzoyl)-2-hydroxy-benzeneacetic acid]: the concentration for half-maximal inhibition (IC50) stood at 0.38 µM.

As to `CC(C)c1ccc(C=CC(=O)c2ccc(O)c(CC(=O)O)c2)cc1` [Example 29, 5-(3-(4-(1-Methyl-ethyl)-phenyl)-1-oxo-2-propenyl)-2-hydroxy-benzeneacetic acid], the IC50 came to 1.3 µM.

Regarding `COc1ccc(C=CC(=O)c2ccc(O)c(CC(=O)O)c2)cc1` [Example 30, 5-(3-(4-Methoxyphenyl)-1-oxo-2-propenyl)-2-hydroxybenzeneacetic acid], the IC50 worked out at 1.9 µM.

For `CC(=O)c1ccc(C(=O)c2ccc(O)c(CC(=O)O)c2)cc1` [Example 32, 5-(4-Acetylbenzoyl)-2-hydroxy-benzeneacetic acid], the half-maximal inhibitory concentration (IC50) was determined as 0.63 µM.

Regarding `O=C(O)Cc1cc(C=Cc2ccc(C(=O)O)cc2)ccc1O` [Example 33, 2-Hydroxy-5-(2-(4-carboxyphenyl)-1-ethenyl)-benzeneacetic acid], the IC50 is 0.4 µM.

For the origin of these results see US4695648A, “Novel arylacetic acid derivatives” (Pharmacia AB, priority 1984, dated 1987).
